The values that follow are results of earlier work, collected in patent US20100130406A1, “GLYCATED MILK AND USES THEREOF” (SOMNACEUTICS LIMITED, priority 2007, published 2010).

The conditions of data set [1]: normal (non-glycated) peptide.

Take `N[C@@H](Cc1c[nH]c2ccccc12)C(=O)O` [1-tryptophane]: in the data set on humans, the “quantity required for a soporific effect” value is “about 1 g”.

In the case of `COc1ccc2[nH]cc(CCNC(C)=O)c2c1` [Melatonin], the “quantity having a soporific effect for some people” value in the data set on humans was 3 to 5 mg.

In the case of beta-casomorphin-7, the “half-life in the circulation” value in data set [1] was “about a few minutes”. Also, the “sedative and anxiolytic effects” value with chickens was “sedative and anxiolytic effects”; in the data set on cockroaches, “sedative and anxiolytic effects”; in the data set with rats, “sedative and anxiolytic effects”.
